US7718681B2, “5-(1,3-Diaryl-1H-pyrazol-4-ylmethylene)-thiazolidine,2,4-dione derivatives useful as anticancer agent” (Korea Research Institute of Chemical Technology, priority 2005, dated 2010)

Tests used:
HT29 = assay: Cell cytotoxicity assay (SRB), HT29; type: cell-based; conditions: Homo sapiens, HT-29, HT29, 10 μM, 48 hours, read-out: % of inhibition of growth of cancer cells
Method: (§1) A549, HT29 and MCF-7 were used to measure anticancer activity. The cancer cells were those distributed from the National Cancer Institute (NCI) of the U.S. and cultured by the Korea Research Institute of Chemical Technology (KRICT), which had been derived from human tumor cell lines. The cells were cultured in a 5% CO2 incubator at 37° C. with constant temperature and humidity using RPMI 1640 culture medium fortified with 5% fetal bovine serum. Subculturing was carried out once in 3-4 days. A PBS (phosphate buffered saline) solution in which 0.25% trypsin and […] trans-1,2-diaminocyclohexane-N,N,N,N-tetraacetic acid (CDTA) were dissolved was used to separate the cells.
(§2) The SRB (sulforhodamine B) assay method, which was developed in 1989 to measure in vitro anticancer activity of drugs by the NCI, was used. The cells were separated using a trypsin-CDTA solution and were plated on a 96-well microplate (Falcon), about 2×10^3 cells per each well. The cells were cultured in a CO2 incubator for 24 hours and were attached to the bottom of the plate. After removing the culture medium using an aspirator, each of Compound No. 78, Compound No. 79 and Doxorubicin, a control drug, diluted in a culture medium was added to the wells containing the cells, with a log dose of 6 equivalents, 3 times, […] at one time. The cells were cultured for 48 more hours. If required, dimethylsulfoxide (DMSO) was used to dissolve the compounds. The diluted compound solutions were filtered through a […] filter before being added to the cells. […] Then, absorbance was measured at 520 nm using a microplate reader. In order to quantify the anticancer effect of the compounds, number of cells was counted for the cases where the drug was added (Tz), the cells were cultured for 48 hours with a culture medium containing no drug (C) and the cells were cultured for 48 hours with a culture medium containing the drug (T). Anticancer activity was calculated by the following equations 1 and 2. […]

MCF-7 = assay: Cell cytotoxicity assay (SRB), MCF-7; type: cell-based; conditions: Homo sapiens, MCF7, MCF-7, 10 μM, 48 hours, read-out: % of inhibition of growth of cancer cells
Method: as §1, §2

A549 = assay: Cell cytotoxicity assay (SRB), A549; type: cell-based; conditions: Homo sapiens, A549, 10 μM, 48 hours, read-out: % of inhibition of growth of cancer cells
Method: as §1, §2

[1] = tested on: C33A human uterine cancer cell line
Method: In order to verify the in vivo anticancer effect of the compounds of the present invention, C33A human uterine cancer cell line was subcutaneously injected at the abdominal walls of 6- to 8-week-old male nude mice. […] For a positive control, cisplatin (4 mg/kg), which is widely used as an anticancer agent in clinical tests, was used. The dosage given was 0.25 mL per each administration once a day for a period of 7 consecutive days. The volume of the tumor was calculated by the following equation 3, by measuring the long and short axes with a caliper. Tumor volume=(Short axis,mm)^2×(Long axis,mm)×0.523 Equation 3

CDC25B = biological target: T1, CDC25B (Homo sapiens, UniProt P30305); assay: CDC25B enzyme assay; type: biochemical; conditions: catalytic domain of CDC25B (aa 378-566) GST fusion, 20 μm FDP, 1 hour at room temperature, fluorescence
T1 construct: Catalytic domain of CDC25B (aa 378-566) was expressed and produced in E. coli into a GST fusion protein; GST; made in house; host or cells: E. coli
T1 sequence (P30305 378-566 isoform P30305-2): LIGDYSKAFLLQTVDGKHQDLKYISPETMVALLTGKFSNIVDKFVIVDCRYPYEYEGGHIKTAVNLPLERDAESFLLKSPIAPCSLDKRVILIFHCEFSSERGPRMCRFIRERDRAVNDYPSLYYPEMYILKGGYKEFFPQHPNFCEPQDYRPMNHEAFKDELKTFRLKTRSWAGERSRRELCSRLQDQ
Method: Catalytic domain of CDC25B (aa 378-566) was expressed and produced in E. coli into a GST fusion protein, which was used as zymogen. Enzyme assay was carried out on a 96-well plate, with the final reaction volume per well adjusted to 200 μL. 170 μL of a buffer solution (30 mM Tris buffer, pH 8.5, 75 mM NaCl, 0.67 mM EDTA, 1 mM DTT), 20 μL (0.2 μg) of CDC25B enzyme and 10 μL of the test compound dissolved in DMSO were added, so that the final concentration became 1 μg/mL CDC25B and 20 μm FDP. Measurement was made after culturing at room temperature for 1 hour. FDP and DTT were added to the buffer solution just before assay, so that a fresh status could be maintained. After 1 hour of culturing, fluorescence resultant from the enzymatic reaction was measured at 485 nm (excitation) and 538 nm (emission).
The screened compound was treated to a final concentration of 1, 2, 5 and 10 μm to obtain the % inhibition value. If the inhibitory effect was low (less than 50% at […]), the concentration of the compound was increased to 20 μm and the % inhibition value and the IC50 value were obtained.

negative responses (reduced motion, lack of appetite) ([1]; mouse, in vivo)	IC50 (CDC25B)	Compound	inhibition at 10 µM (HT29)	inhibition at 10 µM (MCF-7)	inhibition at 10 µM (A549)	anticancer activity (tumor volume) ([1]; C33A tumor in male nude mice, into the abdominal cavity once a day for 7 days, FIG. 1, cisplatin 4 mg/kg positive control)
did not shows any negative responses	2.26 µM	CCOc1ccc(-c2nn(-c3ccccc3)cc2C=C2SC(=O)N(C)C2=O)cc1Br [Compound 78, 5-[3-(3-bromo-4-ethoxy-phenyl)-1-phenyl-1H-pyrazol-4-ylmethylene]-3-methyl-thiazolidine-2,4-dione]	59.7%	67.3%	67.5%	comparable to that of cisplatin
		COc1cccc2c1C(=O)c1c(O)c3c(c(O)c1C2=O)C[C@@](O)(C(=O)CO)C[C@@H]3O[C@H]1C[C@H](N)[C@H](O)[C@H](C)O1 [Doxorubicin, reference compound]	51.1%	63.2%	39%	
	1.41 µM	CCOc1ccc(-c2nn(-c3ccccc3)cc2C=C2SC(=O)N(CC)C2=O)cc1Br [Compound 79, 5-[3-(3-bromo-4-ethoxy-phenyl)-1-phenyl-1H-pyrazol-4-ylmethylene]-3-ethyl-thiazolidine-2,4-dione]	82.4%	31.1%	39.1%	
